Data: the Kinase Knowledgebase extract (Sharma et al. 2016)

How the values were obtained:
[1] = target: PIK3CA (human), P42336 [Antiproliferation of PI3K Mutated BT20 Cells]; assay: Cell-Based Assay
PIK3CA (human) = PIK3CA (human) (UniProt P42336); assay: Inhibition of PIK3CA Kinase Activity
Sequence of PIK3CA (human) (P42336 whole entry, looked up): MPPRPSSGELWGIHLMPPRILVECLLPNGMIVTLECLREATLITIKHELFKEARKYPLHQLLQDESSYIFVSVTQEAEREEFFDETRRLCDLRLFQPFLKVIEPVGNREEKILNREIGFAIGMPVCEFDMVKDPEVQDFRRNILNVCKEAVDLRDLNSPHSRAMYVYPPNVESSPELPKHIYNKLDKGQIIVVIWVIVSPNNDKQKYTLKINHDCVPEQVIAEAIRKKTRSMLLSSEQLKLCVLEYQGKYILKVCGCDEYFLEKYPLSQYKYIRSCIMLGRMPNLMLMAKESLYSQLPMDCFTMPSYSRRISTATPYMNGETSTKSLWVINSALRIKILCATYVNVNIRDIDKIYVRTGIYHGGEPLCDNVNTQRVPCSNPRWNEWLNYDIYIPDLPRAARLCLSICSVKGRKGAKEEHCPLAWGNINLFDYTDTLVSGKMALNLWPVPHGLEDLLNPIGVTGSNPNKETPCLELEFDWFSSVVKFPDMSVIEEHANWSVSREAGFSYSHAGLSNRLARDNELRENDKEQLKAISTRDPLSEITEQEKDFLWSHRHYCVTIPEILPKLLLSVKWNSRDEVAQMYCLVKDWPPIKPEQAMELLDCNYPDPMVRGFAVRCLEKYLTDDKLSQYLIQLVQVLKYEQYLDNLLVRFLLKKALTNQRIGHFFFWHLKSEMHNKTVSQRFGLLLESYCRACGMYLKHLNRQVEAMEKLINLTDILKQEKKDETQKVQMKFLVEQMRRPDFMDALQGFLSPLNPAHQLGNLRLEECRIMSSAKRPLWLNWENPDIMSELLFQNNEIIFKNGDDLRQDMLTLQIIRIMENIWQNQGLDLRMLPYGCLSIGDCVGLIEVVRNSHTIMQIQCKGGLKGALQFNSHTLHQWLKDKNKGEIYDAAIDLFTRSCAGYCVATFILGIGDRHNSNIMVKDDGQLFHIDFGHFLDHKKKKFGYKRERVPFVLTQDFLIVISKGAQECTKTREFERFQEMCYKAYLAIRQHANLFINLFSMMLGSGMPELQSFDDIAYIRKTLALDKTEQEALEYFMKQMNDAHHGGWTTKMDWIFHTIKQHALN

Sequence of PIK3CA (human), P42336 [Antiproliferation of PI3K Mutated BT20 Cells] (P42336 whole entry, looked up, change not shown): as the sequence (P42336 whole entry, looked up) above

IC50 [1] [nM]	IC50 (PIK3CA (human)) [nM]	SMILES
19		COc1ccc(-c2cc3c(C)nc(N)nc3n([C@H]3CC[C@@H](O)CC3)c2=O)cn1
172	27	COc1ccc(-c2cc3c(C)nc(N)nc3n(C3CCN(C(=O)OC(C)(C)C)C3)c2=O)cn1 (stereo unspecified)
45.6	4.6	CNc1nc(C)c2cc(-c3ccc(OC)nc3)c(=O)n(CC3CCOC3)c2n1 (stereo unspecified)
10000		CNc1nc(C)c2cc(-c3cc(CN)ccc3F)c(=O)n(C3CCCC3)c2n1
13.2	6.82	COc1ccc(-c2cc3c(C)nc(N)nc3n([C@H]3CC[C@H](OC[C@@H](O)CO)CC3)c2=O)cn1
7980	3400	CCNc1nc(C)c2cc(-c3cccnc3N)c(=O)n(C3CCCC3)c2n1
1.76	0.731	CNc1nc(C)c2cc(-c3cccc(O)c3)c(=O)n(C3CCCC3)c2n1
622	168	COc1cccc(-c2cc3c(C)nc(N)nc3n(C3CCCC3)c2=O)c1
146	29.7	CNc1nc(C)c2cc(-c3ccc(Cl)nc3)c(=O)n(C3CCCC3)c2n1
	28	Cc1nc(N)nc2c1cc(-c1cn[nH]c1)c(=O)n2N1CCCC1
594	48	CNc1nc(C)c2cc(Br)c(=O)n(CC3CCOC3)c2n1 (stereo unspecified)
1020	94	Cc1nc(N)nc2c1cc(Br)c(=O)n2CC1CCOC1 (stereo unspecified)
	1200	CCn1cc(CNC(=O)c2cc3c(C)nc(NC)nc3n(C3CCCC3)c2=O)cn1
120	21	COc1ccc(-c2cc3c(C)nc(N)nc3n(CC3CCCO3)c2=O)cn1 (stereo unspecified)
	310	COc1ccc(Cn2c(=O)c(-c3ccccc3)cc3c(C)nc(N)nc32)cc1
623	32	Cc1nc(N)nc2c1cc(-c1cnn(C)c1)c(=O)n2C1CCCC1
57.8	2.8	Cc1nc(N)nc2c1cc(-c1cnc3[nH]ccc3c1)c(=O)n2CC1CCOC1 (stereo unspecified)
3.6		COc1ccc(-c2cc3c(C)nc(N)nc3n([C@H]3CC[C@H](O)CC3)c2=O)cn1
26.5	88	Cc1nc(N)nc2c1cc(-c1ccc(N3CCCC3)nc1)c(=O)n2C1CCCC1
10000		CCNc1nc(C)c2cc(CCC(=O)Nc3ccccn3)c(=O)n(C3CCCC3)c2n1
106	17	C=CCn1c(=O)c(-c2ccc(OC)nc2)cc2c(C)nc(NC)nc21
58.4	6.3	CNc1nc(C)c2cc(-c3ccc(OC)nc3)c(=O)n(C3CCC3)c2n1

IC50 [1] [nM]	IC50 (PIK3CA (human)) [nM]	SMILES
55.8	1.2	Cc1nc(N)nc2c1cc(-c1cnc3[nH]ccc3c1)c(=O)n2[C@@H]1CC[C@@H](O)C1
603	60	CNc1nc(C)c2cc(C#N)c(=O)n(C3CCCC3)c2n1
7.37	3.9	COc1ccc(-c2cc3c(C)nc(N)nc3n([C@H]3CC[C@H](OC)CC3)c2=O)cn1
82.9		COc1ncc(-c2cc3c(C)nc(N)nc3n([C@H]3CC[C@@H](OCC(N)=O)CC3)c2=O)cn1
10.1	6.2	CO[C@H]1CC[C@H](n2c(=O)c(-c3ccc(N(C)C)nc3)cc3c(C)nc(N)nc32)CC1
25.8	20	Cc1nc(N)nc2c1cc(-c1cn[nH]c1)c(=O)n2C1CCOC1 (stereo unspecified)
2750	4	CCNc1nc(C)c2cc(CCCO)c(=O)n(C3CCCC3)c2n1
	1.43	COc1ncc(-c2cc3c(C)nc(N)nc3n(C3CCOCC3)c2=O)cc1F
10000	3300	CCN(CC)C(=O)OCn1cc(-c2cc3c(C)nc(N)nc3n(C(C)C)c2=O)nn1
1670	230	Cc1nc(N)nc2c1cc(Br)c(=O)n2C1CCOC1 (stereo unspecified)
15.3	5.31	COc1ncc(-c2cc3c(C)nc(N)nc3n([C@H]3CC[C@@H](OCCO)CC3)c2=O)cn1
3450	170	Cc1nc(N)nc2c1cc(-c1cccc(Cl)n1)c(=O)n2C1CCCC1
14.6	3.11	COc1ncc(-c2cc3c(C)nc(N)nc3n([C@H]3C[C@H](OCCO)C3)c2=O)cc1F
42	8.2	Cc1nc(N)nc2c1cc(-c1cnc3ccccc3c1)c(=O)n2[C@H]1CC[C@H](O)CC1
17.9	15	Cc1nc(N)nc2c1cc(-c1cnc(N)cn1)c(=O)n2C1CCCC1
19	0.989	COc1cc(-c2cc3c(C)nc(N)nc3n(C3CCCC3)c2=O)ccc1O
495	45	Cc1nc(N)nc2c1cc(-c1cnn(CCO)c1)c(=O)n2C1CCCC1
41.5	120	Cc1nc(N)nc2c1cc(-c1cn[nH]c1)c(=O)n2C1CN(C(=O)OC(C)(C)C)C1
33.2	3.9	Cc1nc(N)nc2c1cc(-c1cccc(CO)c1)c(=O)n2C1CCOCC1
226	22.3	Cc1nc(N)nc2c1cc(-c1cnn(C)c1)c(=O)n2[C@H]1CC[C@H](OCCO)CC1
657	110	C#Cc1cc2c(C)nc(N)nc2n(C2CCC2)c1=O
650	68	CNc1nc(C)c2cc(C(N)=O)c(=O)n(C3CCCC3)c2n1

IC50 [1] [nM]	IC50 (PIK3CA (human)) [nM]	SMILES
556	62	Cc1nc(N)nc2c1cc(-c1c[nH]nn1)c(=O)n2C(C)C
669	244	CNc1nc(C)c2cc(-c3cccc(OC)c3)c(=O)n(C3CCCC3)c2n1
	56	COc1ccc(-c2cc3c(C)nc(N)nc3n(C3CC3)c2=O)cn1
397	12	Cc1nc(N)nc2c1cc(-c1cnn(CC(F)F)c1)c(=O)n2C1CCCC1
74.2	39.1	Cc1nc(N)nc2c1cc(-c1ccc(Cl)nc1)c(=O)n2C1CCCC1
13.5	1.6	CNc1nc(C)c2cc(-c3cnc4[nH]ccc4c3)c(=O)n(CC3CCOC3)c2n1 (stereo unspecified)
2090	95	Cc1nc(N)nc2c1cc(C#N)c(=O)n2C1CCC1
28.3	0.59	Cc1nc(N)nc2c1cc(C(=O)Nc1ccn[nH]1)c(=O)n2[C@H]1CC[C@H](O)CC1
16.4	2.34	CNc1nc(C)c2cc(C(=O)Nc3cc[nH]n3)c(=O)n(C3CCCC3)c2n1
2330	400	CNc1nc(C)c2cc(-c3cnc(N)c(OC[C@H](C)N)n3)c(=O)n(C3CCCC3)c2n1
2760	460	CNc1nc(C)c2cc(-c3ccc(OC)nc3)c(=O)[nH]c2n1
4.84	0.524	Cc1nc(N)nc2c1cc(-c1cccc(O)c1)c(=O)n2C1CCCC1
20.2	3.1	Cc1nc(N)nc2c1cc(-c1cccc(CO)c1)c(=O)n2C1CCCC1
26.7	45	COc1ncc(-c2cc3c(C)nc(N)nc3n(C3CCOCC3)c2=O)cn1
10000	3400	Cc1nc(N)nc2c1cc(-c1ccc(F)cc1)c(=O)n2CC(C)(C)O
4.66	12	Cc1nc(N)nc2c1cc(-c1cn[nH]c1)c(=O)n2C1CCC(=O)CC1
3.82	0.75	CNc1nc(C)c2cc(-c3cnc4[nH]ccc4c3)c(=O)n(C3CCCC3)c2n1
234	24	CNc1nc(C)c2cc(-c3cnn(CCO)c3)c(=O)n(C3CCCC3)c2n1
38.9	2.2	COc1ncc(-c2cc3c(C)nc(N)nc3n([C@H]3CC[C@H](OCCO)CC3)c2=O)cn1
3530	275	CNc1nc(C)c2cc(-c3cccnc3OC)c(=O)n(C3CCCC3)c2n1
30.5	2.9	Cc1nc(N)nc2c1cc(C(=O)Nc1ccn[nH]1)c(=O)n2C(C)C
11.9	2	Cc1nc(N)nc2c1cc(-c1cnc3[nH]ccc3c1)c(=O)n2C1CCC1

IC50 [1] [nM]	IC50 (PIK3CA (human)) [nM]	SMILES
110	5.91	COc1ncc(-c2cc3c(C)nc(N)nc3n([C@H]3C[C@H](OCC(N)=O)C3)c2=O)cn1
262	130	COc1ccc(-c2cc3c(C)nc(N)nc3n(CC(F)(F)F)c2=O)cn1
	4900	Cc1nc(N)nc2c1cc(-c1ccncc1)c(=O)n2Cc1ccc(Cl)cc1
896	42	CNc1nc(C)c2cc(/C=C/O)c(=O)n(C3CCCC3)c2n1
23.1	11	Cc1cc(-c2cc3c(C)nc(N)nc3n(C3CCCC3)c2=O)cnc1N(C)C
41.4	8.9	CNc1nc(C)c2cc(-c3ccc(OC)nc3)c(=O)n(CCC3CC3)c2n1
87.6	4.6	COc1ccc(-c2cc3c(C)nc(N)nc3n([C@@H]3CC[C@@H](O)C3)c2=O)cn1
10000	5500	CCNc1nc(C)c2cc(CCC(=O)OCC)c(=O)n(C3CCCC3)c2n1
10000		CCNc1nc(C)c2cc(CCC(=O)N(CC)CC)c(=O)n(C3CCCC3)c2n1
	2.6	COc1ncc(-c2cc3c(C)nc(N)nc3n([C@H]3CC[C@@H](OCCO)CC3)c2=O)cc1F
19.3		COc1ccc(-c2cc3c(C)nc(N)nc3n([C@H]3CC[C@H](OCC(N)=O)CC3)c2=O)cn1
	78	Cc1nc(N)nc2c1cc(-c1cn[nH]c1)c(=O)n2C1CC1
71.4		COc1ccc(-c2cc3c(C)nc(N)nc3n(C3CCOCC3)c2=O)cn1
1180		Cc1nc(NCC(C)(C)O)nc2c1cc(-c1cccc(O)c1)c(=O)n2C1CCCC1
10000		CCNc1nc(C)c2cc(CCC(=O)N(C)C)c(=O)n(C3CCCC3)c2n1
322		Cc1nc(N)nc2c1cc(-c1cnc3ccccc3c1)c(=O)n2CC(C)(C)O
	1400	Cc1nc(N)nc2c1cc(-c1ccccc1)c(=O)n2Cc1ccc(Cl)cc1
51.9		COc1ncc(-c2cc3c(C)nc(N)nc3n([C@H]3CC[C@H](OCC(N)=O)CC3)c2=O)cn1
3.49		Cc1nc(N)nc2c1cc(-c1cn[nH]c1)c(=O)n2C1CCCC1
20.5		COc1ccc(-c2cc3c(C)nc(N)nc3n([C@H]3CC[C@@H](OCC(N)=O)CC3)c2=O)cn1
	3.9	CCn1nccc1NC(=O)c1cc2c(C)nc(N)nc2n(C(C)C)c1=O
	23	COc1ccc(-c2cc3c(C)nc(N)nc3n(N3CCCC3)c2=O)cn1
